Reference: patent publication EP0311616B1, “COMBINATIONS OF GAMMA INTERFERONS AND ANTI-INFLAMMATORY OR ANTI-PYRETIC AGENTS FOR TREATING DISEASES” (BIOGEN, INC., priority 1986, dated 1987)
Where two headings read alike, the source gives them in different places.

Legend:
BL/MEX6 human melanoma = assay: six day Subrenal Capsule Assay, tumor xenograft implanted under the renal capsule of normal immunocompetent mice; format: in vivo; details: for Avg. Δ Tumor Size (mean ± S.D.): change Day 6-Day 0; for Tumor Response: summary of Examples 1-3, IFN-γ i.m., cortisone and prednisone s.c., all other agents p.o., b.i.d., QD1-5, significance of inhibition vs control
From the text: (§1) In each example, following the standardized protocol for the Subrenal Capsule™ Assay [A.E. Bogden, P.M. Haskell, D.J. LePage, D.E. Kelton, W.R. Cobb, H.J. Esber, "Growth Of Human Tumor Xenografts Implanted Under The Renal Capsule Of Normal Immunocompetent Mice", Exp. Cell Biology, 47, pp. 281-93 (1979)], we implanted BL/MEX6 human melanoma established in serial transplantation (Bogden Laboratories) under the renal capsule of normal, immunocompetent mice (BALB/c × DBA/2) F₁ (CDF₁) (Examples 1 and 2) and into (B6C3F₁) mice (Example 3). Each mouse weighed approximately 25 grams. We then divided the mice into treatment groups as follows: group 1: 10 mice, groups 2-7: 8 mice each.
Over a five-day period, we treated each of groups 4-7 of mice with one of the following anti-inflammatory agents or anti-pyretic agents, either singly or in combination with IFN-γ (IFN-γ dosage: 2,000 µg/Kg/inj., b.i.d., i.m.):
The anti-inflammatory agents or anti-pyretic agents were administered prior to IFN-γ in all combination treatment groups. In each example, we treated groups 1-3 of mice as follows: Group 1: 0.25 ml/inj., b.i.d., i.m. PBS (vehicle treated control) Group 2: 400 mg/Kg/inj., s.c. DTIC [dacarbazine] (positive chemotherapy control) Group 3: 2,000 µg/Kg/inj., b.i.d., i.m. IFN-γ
(§2) In each example, for each mouse, we recorded initial body weight, implanted a tumor and recorded an initial in situ tumor measurement (two diameters) in ocular micrometer units (omu). We administered treatment on days 1-5. Survivors were recorded and any mice dying prior to sacrifice were necropsied. On day 6, the mice were sacrificed, final body weights were recorded, implanted kidneys were removed and final in situ tumor measurements were made to determine tumor growth inhibition or regression. We calculated the ratio of average final body weight to initial body weight (FBW/IBW) to monitor systemic toxicity. Change in (Δ) tumor size between day of sacrifice (day 6) and day of tumor implant (day 0) was calculated individually and for each group.

[1] = day 6
From the text: as §1, §2

[2] = Example 2, (BALB/c × DBA/2) F1 (CDF1) mice, treatment QD1-5 at doses of Table III
[3] = Example 2, CDF1 mice, treatment QD1-5 at doses of Table III, day 6
[4] = Example 2, CDF1 mice, treatment QD1-5 at doses of Table III
[5] = Example 3, (B6C3F1) mice, treatment QD1-5 at doses of Table V
[6] = Example 3, B6C3F1 mice, treatment QD1-5 at doses of Table V, day 6
[7] = Example 3, B6C3F1 mice, treatment QD1-5 at doses of Table V
[8] = Example 1, (BALB/c × DBA/2) F1 (CDF1) mice, treatment QD1-5 at doses of Table I
[9] = Example 1, CDF1 mice, treatment QD1-5 at doses of Table I, day 6
[10] = Example 1, CDF1 mice, treatment QD1-5 at doses of Table I

Question: With CC(=O)Oc1ccccc1C(=O)O [ASA, acetyl salicylic acid] as the compound, how does the “Avg. Δ Tumor Size (mean ± S.D.)” value (BL/MEX6 human melanoma; [2]) read?
Answer: 3.2±1.95 omu

Question: What about the “Percent Test/Control” value (BL/MEX6 human melanoma; [3]) of the same compound?
Answer: 80%

Question: And the “Test-Control (Δ tumor size (test) minus Δ tumor size (control), degree of tumor inhibition)” value (BL/MEX6 human melanoma; [3])?
Answer: -0.80 omu

Question: And the “Tumor Response” value (BL/MEX6 human melanoma)?
Answer: -

Question: And the “FBW/IBW (Final Body Weight/Initial Body Weight)” value (from here on “FBW/IBW”) [1, 4]?
Answer: 0.93

Question: What does the source list for CC(=O)Nc1ccc(O)cc1 [Acetaminophen]?
Answer: Avg. Δ Tumor Size (mean ± S.D.) (BL/MEX6 human melanoma; [2]): 1.9±1.46 omu; Percent Test/Control (BL/MEX6 human melanoma; [3]): 48%; Test-Control (Δ tumor size (test) minus Δ tumor size (control), degree of tumor inhibition) (BL/MEX6 human melanoma; [3]): -2.10 omu; Tumor Response (BL/MEX6 human melanoma): ++ (Significant inhibition p<0.01)

Question: What does the source list for C[C@]12CCC(=O)C=C1CC[C@@H]1[C@@H]2C(=O)C[C@@]2(C)[C@H]1CC[C@]2(O)C(=O)CO [Cortisone]?
Answer: Avg. Δ Tumor Size (mean ± S.D.) (BL/MEX6 human melanoma; [5]): 1.3±1.73 omu; Percent Test/Control (BL/MEX6 human melanoma; [6]): 37%; Test-Control (Δ tumor size (test) minus Δ tumor size (control), degree of tumor inhibition) (BL/MEX6 human melanoma; [6]): -2.20 omu; Tumor Response (BL/MEX6 human melanoma): + (Significant inhibition p<0.05); FBW/IBW (Final Body Weight/Initial Body Weight) [1, 7]: 0.96

Question: With CN(C)/N=N/c1[nH]cnc1C(N)=O [DTIC, dacarbazine] as the compound, how does the “Avg. Δ Tumor Size (mean ± S.D.)” value (BL/MEX6 human melanoma; [8]) read?
Answer: 0.5±0.7 omu

Question: What about the “Percent Test/Control” value (BL/MEX6 human melanoma; [9]) of the same compound?
Answer: 14%

Question: What about the “Test-Control (Δ tumor size (test) minus Δ tumor size (control), degree of tumor inhibition)” value (BL/MEX6 human melanoma; [9]) of the same compound?
Answer: -3.20 omu

Question: What about the “Avg. Δ Tumor Size (mean ± S.D.)” value (BL/MEX6 human melanoma; [2]) of the same compound?
Answer: -0.2±0.70 omu

Question: And the “R = regression from original size using the formula FTS (final tumor size)-ITS (initial tumor size)/ITS x 100” value (BL/MEX6 human melanoma; Example 2, CDF1 mice, printed as R plus number in the Percent Test/Control column, day 6)?
Answer: R2%

Question: And the “Test-Control (Δ tumor size (test) minus Δ tumor size (control), degree of tumor inhibition)” value (BL/MEX6 human melanoma; [3])?
Answer: -4.20 omu

Question: What about the “Avg. Δ Tumor Size (mean ± S.D.)” value (BL/MEX6 human melanoma; [5]) of the same compound?
Answer: -0.2±1.00 omu

Question: And the “R = regression from original size using the formula (FTS-ITS)/ITS x 100” value (BL/MEX6 human melanoma; Example 3, B6C3F1 mice, printed as R plus number in the Percent Test/Control column, day 6)?
Answer: R2%

Question: And the “Test-Control (Δ tumor size (test) minus Δ tumor size (control), degree of tumor inhibition)” value (BL/MEX6 human melanoma; [6])?
Answer: -3.70 omu

Question: What about the “FBW/IBW” value [1, 10] of the same compound?
Answer: 0.86

Question: And the “FBW/IBW” value [1, 4]?
Answer: 0.81

Question: And the “FBW/IBW” value [1, 7]?
Answer: 0.81

Question: For COc1ccc2c(c1)c(CC(=O)O)c(C)n2C(=O)c1ccc(Cl)cc1 [Indomethacin], which “Avg. Δ Tumor Size (mean ± S.D.)” value (BL/MEX6 human melanoma; [8]) is on record?
Answer: 3.1±1.69 omu

Question: And the “Percent Test/Control” value (BL/MEX6 human melanoma; [9])?
Answer: 84%

Question: What about the “Test-Control (Δ tumor size (test) minus Δ tumor size (control), degree of tumor inhibition)” value (BL/MEX6 human melanoma; [9]) of the same compound?
Answer: -0.60 omu

Question: What about the “Tumor Response” value (BL/MEX6 human melanoma) of the same compound?
Answer: -

Question: What about the “FBW/IBW” value [1, 10] of the same compound?
Answer: 0.98

Question: For COc1ccc2cc([C@H](C)C(=O)O)ccc2c1 [Naproxen], which “Avg. Δ Tumor Size (mean ± S.D.)” value (BL/MEX6 human melanoma; [8]) is on record?
Answer: 2.8±1.28 omu

Question: And the “Percent Test/Control” value (BL/MEX6 human melanoma; [9])?
Answer: 76%

Question: What about the “Test-Control (Δ tumor size (test) minus Δ tumor size (control), degree of tumor inhibition)” value (BL/MEX6 human melanoma; [9]) of the same compound?
Answer: -0.90 omu

Question: And the “Tumor Response” value (BL/MEX6 human melanoma)?
Answer: -

Question: What about the “FBW/IBW” value [1, 10] of the same compound?
Answer: 0.99

Question: Which “Avg. Δ Tumor Size (mean ± S.D.)” value (BL/MEX6 human melanoma; [5]) does the source give for C[C@]12C=CC(=O)C=C1CC[C@@H]1[C@@H]2C(=O)C[C@@]2(C)[C@H]1CC[C@]2(O)C(=O)CO [Prednisone] here?
Answer: 0.6±1.57 omu

Question: And the “Percent Test/Control” value (BL/MEX6 human melanoma; [6])?
Answer: 17%

Question: What about the “Test-Control (Δ tumor size (test) minus Δ tumor size (control), degree of tumor inhibition)” value (BL/MEX6 human melanoma; [6]) of the same compound?
Answer: -2.90 omu

Question: What about the “Tumor Response” value (BL/MEX6 human melanoma) of the same compound?
Answer: ++ (Significant inhibition p<0.01)
